This note sets out measurements from patent US9771369B2, “Compounds and methods for kinase modulation, and indications therefor” (Plexxikon Inc., priority 2014, dated 2017).

Test [1] deals with BaF3-FL KIT D816V or BaF3-FL KIT V560G/D816V cell line. Description: Cell-based assays of c-Kit mutant kinase activity (cell proliferation, ATPlite). Particulars: at least one of the c-kit cell assays of Example 7. Put shortly:
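BaF3 cells dependent on transfected full-length human KIT D816V or V560G/D816V (pCI-Neo, CMV promoter) were seeded at 1×10^4 cells/well and exposed to 8-point 1:3 dilutions from 10 μM top (0.2% DMSO) for three days at 37° C. ATPlite luminescence gave cell number; IC50 from concentration-response.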
In general terms: Cellular ATP, detected with luciferase, serves as a proxy for viable cell number.

The target of the next test is c-kit mutant D816V (Homo sapiens (Human), UniProt P10721, D816V/DEL694-753). In words: c-Kit mutant D816V biochemical assay (AlphaScreen kinase activity). In outline: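 Recombinant His-tagged c-Kit D816V kinase domain (residues 551-934, insert 694-753 deleted, E. coli-expressed) phosphorylating 30 nM biotin-(E4Y)10 with 10 μM ATP, HEPES pH 7.2, Mg/Mn, 5% DMSO; 30 min, room temperature. Phosphorylation detected by AlphaScreen (streptavidin donor/PY30 acceptor beads); IC50 from 8-point 1:3 series.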

Each structure is given as a SMILES string. Bounds are passed on as bounds.

c-kit mutant D816V, sequence (P10721 other isoform, or with tags, fused parts or gaps D816V/del 694-753): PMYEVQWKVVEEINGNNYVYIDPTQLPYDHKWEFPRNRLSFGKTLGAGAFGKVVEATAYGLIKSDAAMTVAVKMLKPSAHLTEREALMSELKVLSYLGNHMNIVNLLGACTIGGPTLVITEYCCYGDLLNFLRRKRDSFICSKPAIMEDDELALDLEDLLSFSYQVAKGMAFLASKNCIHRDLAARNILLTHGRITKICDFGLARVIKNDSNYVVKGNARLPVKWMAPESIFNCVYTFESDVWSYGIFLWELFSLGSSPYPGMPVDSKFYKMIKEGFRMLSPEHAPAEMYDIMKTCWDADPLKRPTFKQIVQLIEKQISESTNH

With `Cc1nc(C2(C)CCN(c3ncnc4[nH]c(-c5ccc(OCC(=O)O)cc5)cc34)CC2)[nH]c1-c1ccc(C(F)F)cc1` [P-3240, 2-[4-[4-[4-[5-[4-(difluoromethyl)phenyl]-4-methyl-1H-imidazol-2-yl]-4-methyl-1-piperidyl]-7H-pyrrolo[2,3-d]pyrimidin-6-yl]phenoxy]acetic acid], the IC50 (in general, the concentration that inhibits the measured activity by half) in test [1] was less than 10000 nM; against c-kit mutant D816V, 0.0001 to 1 µM.
For the molecule `Cc1nc(C2(C)CCN(c3ncnc4[nH]c(-c5ccc(OCC(=O)O)cc5)cc34)CC2)[nH]c1-c1ccc(OC(F)F)cc1` [P-3241, 2-[4-[4-[4-[5-[4-(difluoromethoxy)phenyl]-4-methyl-1H-imidazol-2-yl]-4-methyl-1-piperidyl]-7H-pyrrolo[2,3-d]pyrimidin-6-yl]phenoxy]acetic acid], the values for the IC50 (in test [1]; on c-kit mutant D816V) were less than 10000 nM and 0.0001 to 1 µM, respectively.
For the molecule `Cc1nc(C2(C)CCN(c3ncnc4[nH]c(-c5cnn(C(F)F)c5)cc34)CC2)[nH]c1-c1ccc(OC(F)F)cc1` [P-3242, 4-[4-[5-[4-(difluoromethoxy)phenyl]-4-methyl-1H-imidazol-2-yl]-4-methyl-1-piperidyl]-6-[1-(difluoromethyl)pyrazol-4-yl]-7H-pyrrolo[2,3-d]pyrimidine], the IC50 was less than 10000 nM in test [1] and 0.0001 to 1 µM against c-kit mutant D816V.
For the molecule `CCOc1ccc(-c2[nH]c(C3(C)CCN(c4ncnc5[nH]c(-c6ccc(C(N)=O)cc6)cc45)CC3)nc2C)cc1C` [P-3243, 4-[4-[4-[5-(4-ethoxy-3-methyl-phenyl)-4-methyl-1H-imidazol-2-yl]-4-methyl-1-piperidyl]-7H-pyrrolo[2,3-d]pyrimidin-6-yl]benzamide], the results for the IC50 (in test [1]; at c-kit mutant D816V) were less than 10000 nM and 0.0001 to 1 µM, respectively.
With `CCOc1ccc(-c2[nH]c(C3(C)CCN(c4ncnc5[nH]c(-c6ccc(OCC(=O)O)cc6)cc45)CC3)nc2C)cc1C` [P-3244, 2-[4-[4-[4-[5-(4-ethoxy-3-methyl-phenyl)-4-methyl-1H-imidazol-2-yl]-4-methyl-1-piperidyl]-7H-pyrrolo[2,3-d]pyrimidin-6-yl]phenoxy]acetic acid], the figures for the IC50 (in test [1]; against c-kit mutant D816V) were less than 10000 nM and 0.0001 to 1 µM, respectively.
On to `CCOc1ccc(-c2[nH]c(C3(C)CCN(c4ncnc5[nH]c(-c6cnn(C(F)F)c6)cc45)CC3)nc2C)cc1C` [P-3245, 6-[1-(difluoromethyl)pyrazol-4-yl]-4-[4-[5-(4-ethoxy-3-methyl-phenyl)-4-methyl-1H-imidazol-2-yl]-4-methyl-1-piperidyl]-7H-pyrrolo[2,3-d]pyrimidine], for which the IC50 is less than 10000 nM in test [1] and 0.0001 to 1 µM against c-kit mutant D816V.
For `CNC(=O)c1ccc(-c2cc3c(N4CCC(C)(c5nc(C)c(-c6ccc(OC(F)F)cc6)[nH]5)CC4)ncnc3[nH]2)cn1` [P-3246, 5-[4-[4-[5-[4-(difluoromethoxy)phenyl]-4-methyl-1H-imidazol-2-yl]-4-methyl-1-piperidyl]-7H-pyrrolo[2,3-d]pyrimidin-6-yl]-N-methyl-pyridine-2-carb oxamide], the IC50 was less than 10000 nM in test [1] and 0.0001 to 1 µM against c-kit mutant D816V.
Regarding `CCOc1ccc(-c2[nH]c(C3(C)CCN(c4ncnc5[nH]c(-c6ccc(C(=O)NC)nc6)cc45)CC3)nc2C)cc1C` [P-3247, 5-[4-[4-[5-(4-ethoxy-3-methyl-phenyl)-4-methyl-1H-imidazol-2-yl]-4-methyl-1-piperidyl]-7H-pyrrolo[2,3-d]pyrimidin-6-yl]-N-methyl-pyridine-2-carb oxamide], the concentration for half-maximal inhibition (IC50) in test [1] is less than 10000 nM; on c-kit mutant D816V, 0.0001 to 1 µM.
The like results for `Cc1nc(C2(C)CCN(c3ncnc4[nH]c(-c5ccc(N6CCOCC6)nc5)cc34)CC2)[nH]c1-c1ccc(OC(F)F)cc1` [P-3248, 4-[5-[4-[4-[5-[4-(difluoromethoxy)phenyl]-4-methyl-1H-imidazol-2-yl]-4-methyl-1-piperidyl]-7H-pyrrolo[2,3-d]pyrimidin-6-yl]-2-pyridyl]morpholine] were, in that order, less than 10000 nM and 0.0001 to 1 µM.
With `CCOc1ccc(-c2[nH]c(C3(C)CCN(c4ncnc5[nH]c(-c6ccc(N7CCOCC7)nc6)cc45)CC3)nc2C)cc1C` [P-3249, 4-[5-[4-[4-[5-(4-ethoxy-3-methyl-phenyl)-4-methyl-1H-imidazol-2-yl]-4-methyl-1-piperidyl]-7H-pyrrolo[2,3-d]pyrimidin-6-yl]-2-pyridyl]morpholine], the IC50 in test [1] was less than 10000 nM; on c-kit mutant D816V, 0.0001 to 1 µM.
